The results in this text go back to ChEMBL document CHEMBL1201862, “PubChem BioAssay data set” (2004).

Experiment in all cases: NCI tumour cell line growth inhibition, 48 h
Assay [1] has as its system A549.
The test system of assay [2] is CCRF-CEM.
Assay [3] has as its system HCT-116.
The subject of assay [4] is HOP-62.
In assay [5] the test system is HT-29.
In assay [6] the test system is M14.
Assay [7] relates to MCF7.
Assay [8] has as its system MOLT-4.
In assay [9] the test system is NCI-H522.
For assay [10], the system named is NCI/ADR-RES.
The subject of assay [11] is OVCAR-4.
For assay [12], the system named is OVCAR-5.
Assay [13] has as its system RXF 393.
Assay [14] has as its system SF-295.
In assay [15] the test system is SK-MEL-5.
The subject of assay [16] is SK-OV-3.
Assay [17] deals with SNB-19.
The test system of assay [18] is SW-620.
Assay [19] deals with T47D.
Assay [20] deals with UACC-257.

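How tested: cells in 96-well plates exposed to compound for 48 hours at five concentrations. GI50: concentration for 50% inhibition of growth.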 Calls of active or inactive are those of the source. Cut-off read from the data, not from the text of the source: active = GI50 up to about 1.1 µM and inactive = higher.

As to `COc1ccc(-n2cnc3c(N)nc(N)nc32)cc1`, the GI50 in [1] is 93.3 µM (inactive); in [2], 25.4 µM (inactive); in [3] it was > 100 µM (inactive); in [4], > 100 µM (inactive); in [5], > 100 µM (inactive); in assay [6] it was > 100 µM (inactive). Besides, the GI50 was 90.8 µM (inactive) in assay [7]; 34 µM (inactive) in assay [8]; > 100 µM (inactive) in [9]; > 100 µM (inactive) in [10]; > 100 µM (inactive) in assay [11]; > 100 µM (inactive) in assay [12]. Further, the GI50 was 43.2 µM (inactive) in assay [13]; > 100 µM (inactive) in assay [14]; > 100 µM (inactive) in assay [15]; > 100 µM (inactive) in assay [16]; > 100 µM (inactive) in assay [17]; > 100 µM (inactive) in assay [18]. Besides, the GI50 in [19] and in assay [20] was > 100 µM (inactive) throughout.

`COc1ccc(C2=CC(C(C)=C(C(N)=O)C(N)=O)C=C(c3ccc(Br)cc3)C2)c(OC)c1` (stereo not given): the GI50 in assay [1], in [2], in assay [3], in [4], in assay [5] and in assay [6] was > 100 µM (inactive) throughout. The GI50 in [7], in assay [8], in assay [9], in assay [10], in [11] and in assay [12] was > 100 µM (inactive) in each case. Moreover, the GI50 in assay [13], in [14], in assay [15], in assay [16], in [17] and in assay [18] was > 100 µM (inactive) in each case. For the same compound, the GI50 in assay [19] is 39.1 µM (inactive); in assay [20] it was > 100 µM (inactive).

On to `COC(=O)c1cc2ccc(O)c(O)c2cn1`, for which the GI50 in assay [1] was 23.6 µM (inactive); in assay [2] it was 1.92 µM (inactive); in assay [3], 15.7 µM (inactive); in assay [4] it was 20.6 µM (inactive); in [5], > 10 µM (inactive); in assay [6], 18.5 µM (inactive). For the same compound, the GI50 in assay [7] is 3.56 µM (inactive); in assay [8], 3.44 µM (inactive); in [9], 21.6 µM (inactive); in assay [10], 7.59 µM (inactive); in assay [11] it was 10.1 µM (inactive); in assay [12], 19.5 µM (inactive). Besides, the GI50 in [13] was 18 µM (inactive); in [14], 18.2 µM (inactive); in assay [15] it was 14.2 µM (inactive); in assay [16], 27.5 µM (inactive); in assay [17], > 10 µM (inactive); in [18], 16.6 µM (inactive). Besides, the GI50 was > 10 µM (inactive) in assay [19] and 15.4 µM (inactive) in [20].

As to `O=c1c2cc(S(=O)(=O)O)ccc2nc(COc2ccc(Oc3ccc(Cl)cc3Cl)cc2)n1-c1ccc(Oc2ccc(Cl)cc2)cc1Cl`, the GI50 in assay [1] was 19.3 µM (inactive); in assay [2], 27.7 µM (inactive); in assay [3], 20.8 µM (inactive); in [4] it was 21.4 µM (inactive); in assay [5], 18.7 µM (inactive); in assay [6], 19.4 µM (inactive). Moreover, the GI50 is 20.7 µM (inactive) in assay [7]; 10.4 µM (inactive) in assay [8]; 20.4 µM (inactive) in [9]; 18.3 µM (inactive) in assay [10]; 25.2 µM (inactive) in assay [11]; 23.2 µM (inactive) in assay [12]. Moreover, the GI50 is 0.0752 µM (active) in assay [13]; 18.3 µM (inactive) in [14]; 18.6 µM (inactive) in assay [15]; 22.6 µM (inactive) in [16]; 26.4 µM (inactive) in [17]; 21.5 µM (inactive) in assay [18]. The GI50 in assay [19] is 33.1 µM (inactive); in [20] it was 25.2 µM (inactive).

As to `C[C@@H]1C[C@H]2OC(=O)[C@@]3(C)CCC[C@@](C)([C@@H]23)[C@@]1(O)CCc1ccoc1`, the GI50 in assay [1] was > 100 µM (inactive); in assay [2], 74.5 µM (inactive); in assay [3], > 87.7 µM (inactive); in [4], > 100 µM (inactive); in [5] it was > 95.7 µM (inactive); in assay [6], > 100 µM (inactive). The GI50 in [7] is > 80.2 µM (inactive); in assay [8] it was 38 µM (inactive); in assay [9], > 61.8 µM (inactive); in assay [10], > 100 µM (inactive); in assay [11], > 64.9 µM (inactive); in assay [12], > 100 µM (inactive). Moreover, the GI50 in assay [13] was > 100 µM (inactive); in [14], > 100 µM (inactive); in assay [15], 40.6 µM (inactive); in assay [16], > 100 µM (inactive); in assay [17], > 100 µM (inactive); in [18], > 100 µM (inactive). Further, the GI50 was > 100 µM (inactive) in assay [19] and > 95.7 µM (inactive) in [20].

On to `CC(=O)NC1CCC(NC(=O)OC(C)(C)C)C(NC(=O)OC(C)(C)C)C1` (stereo not given), for which the GI50 in assay [1], in [2], in assay [3], in assay [4], in assay [5] and in [6] was > 100 µM (inactive) in each case. The GI50 in assay [7], in assay [8], in [9], in [10], in [11] and in assay [12] was > 100 µM (inactive) in each case. For the same compound, the GI50 in assay [13], in [14], in [15], in assay [16], in assay [17] and in assay [18] was > 100 µM (inactive) each time. The GI50 in [19] and in assay [20] was > 100 µM (inactive) in each case.

Take `COC(=O)/C=c1/c2ccccc2n2nc3ccccc3c12`: the GI50 in assay [1] is 65.9 µM (inactive); in assay [2], 11.4 µM (inactive); in assay [3], 22.8 µM (inactive); in assay [4] it was > 100 µM (inactive); in assay [5], 38.9 µM (inactive); in [6] it was > 100 µM (inactive). Moreover, the GI50 is 42.6 µM (inactive) in [7]; 6.01 µM (inactive) in assay [8]; 29 µM (inactive) in assay [9]; 30.8 µM (inactive) in assay [10]; 23 µM (inactive) in [11]; > 100 µM (inactive) in [12]. Also, the GI50 in assay [13] was 34 µM (inactive); in assay [14] it was > 100 µM (inactive); in assay [15] it was 31.6 µM (inactive); in assay [16] it was 16 µM (inactive); in assay [17], 82.4 µM (inactive); in [18], 65 µM (inactive). The GI50 was > 100 µM (inactive) in [19] and 80.9 µM (inactive) in assay [20].

Turning to `OC1[C@@H]2[C@@H](O)CCCN2C[C@@H](O)[C@H]1O` (stereo not given in full), the GI50 in assay [1], in [2], in assay [3], in [4], in [5] and in assay [6] was > 100 µM (inactive) throughout. Moreover, the GI50 is > 100 µM (inactive) in assay [7]; > 100 µM (inactive) in assay [8]; 19.5 µM (inactive) in assay [9]; > 100 µM (inactive) in assay [10]; > 100 µM (inactive) in assay [11]; > 100 µM (inactive) in [12]. In addition, the GI50 in assay [13], in assay [14], in [15], in assay [16], in assay [17] and in [18] was > 100 µM (inactive) throughout. Also, the GI50 in [19] and in [20] was > 100 µM (inactive) each time.

On to `BrCCC[P+](c1ccccc1)(c1ccccc1)c1ccccc1`, for which the GI50 is 25.6 µM (inactive) in assay [1]; > 30.5 µM (inactive) in assay [2]; 1.64 µM (inactive) in assay [3]; 11.3 µM (inactive) in assay [4]; 15.9 µM (inactive) in assay [5]; 11.8 µM (inactive) in assay [6]. For the same compound, the GI50 in assay [7] was 6.22 µM (inactive); in assay [8], 9.66 µM (inactive); in assay [9] it was 3.34 µM (inactive); in assay [10], > 100 µM (inactive); in assay [11], 31.3 µM (inactive); in assay [12], 56.1 µM (inactive). For the same compound, the GI50 in [13] was 2.89 µM (inactive); in assay [14], 40.8 µM (inactive); in assay [15] it was 6.27 µM (inactive); in assay [16], 83.4 µM (inactive); in [17], 16.6 µM (inactive); in [18], 25.5 µM (inactive). Also, the GI50 in assay [19] is 5.85 µM (inactive); in [20], 2.71 µM (inactive).

As to `CCOC(=O)c1c(NC(=O)c2cccs2)sc2c1CCCC2`, the GI50 was 55.5 µM (inactive) in [1]; > 100 µM (inactive) in assay [2]; 46.9 µM (inactive) in assay [3]; 21.8 µM (inactive) in assay [4]; > 100 µM (inactive) in [5]; > 100 µM (inactive) in assay [6]. The GI50 in assay [7] is > 79.6 µM (inactive); in [8] it was > 100 µM (inactive); in assay [9], 39.9 µM (inactive); in assay [10], > 100 µM (inactive); in [11], 60.3 µM (inactive); in [12] it was 35 µM (inactive). Further, the GI50 in [13] was 12.7 µM (inactive); in assay [14] it was 27.3 µM (inactive); in assay [15], > 100 µM (inactive); in assay [16], 25.5 µM (inactive); in assay [17], 30.1 µM (inactive); in [18], > 100 µM (inactive). The GI50 in assay [19] is 30.6 µM (inactive); in [20] it was > 100 µM (inactive).
